Test results as given in patent US20080107619A1, “Carbohydrate based cellulase inhibitors as feeding stimulants in termites” (University of Florida Research Foundation, Inc., priority 2006, published 2008).
“Also recorded” adds a separate entry of the source.

System: R. flavipes worker termites
Assay: No-choice Petri dish in vivo feeding bioassay (feeding and mortality, 24 days)
Conditions: for Average Feeding in mg per Live Termite (std. err.) days 1-8 / Average Feeding in mg per Live Termite (std. err.) days 9-16 / Average Feeding in mg per Live Termite (std. err.) days 17-24 / Normalized Avg. Totals: 1st ROUND (lab colony); for Normalized Avg. Totals: relative to control [0] average
Method: R. flavipes colonies were collected from the University of Florida campus during spring and summer 2006. Colonies were maintained in sealed plastic boxes (30×24×10 cm) at 22±1° C. and 69±1% RH. Colonies were maintained without soil and provisioned with moist brown paper towels and wood shims. Colonies that were acclimated under the above conditions for <2 months are referred to as “field colonies”, while those held for >6 months are referred to as “lab colonies”. Unless otherwise stated, all studies reported here were run with lab colonies.
Two different termite colonies were used. A lab colony was used in bioassays that tested the effects of CBI and FMG; this was the same colony used in cellulase optimization studies, cellulase distribution studies, and for […] determination. The other colony was a field colony, which was used to repeat the FMG assay along side FMCB. The no-choice feeding bioassay was derived from a previously-developed and slightly modified caste differentiation assay reported by M. E. Scharf, et al. in “Caste differentiation responses of two sympatric Reticulitermes termite species to juvenile hormone homologs and synthetic juvenoids in two laboratory assays.” Insectes Soc. […] Acad. Sci. USA, 103 (2006) 4499-504.
Prior to treatment, paper disks 30 were weighed. Treatments and controls were held in complete darkness at approximately 26±1° C. and 69±1% RH. The inhibitor concentrations tested were 75, 50, 25, 10, 5, 1, 0.5, and 0.1 mM (approximately […] wt/wt). For each inhibitor, paper disks were treated with 50 μl of a given concentration. Control disks received 50 μl methanol alone. Treated papers were allowed to dry in a fume hood for 30 min before placing in dishes, wetting with 25 μl water, and adding 15 termites.
Termite feeding on the filter papers was readily observable and quantifiable from the bioassays. Average feeding through the entire bioassay was summed within each replicate and calculated as a percentage of feeding relative to untreated controls, then averaged across replicates.
The experimental design consisted of three replicate dishes per concentration. All assays were carried out for a total of 24 days. Termite mortality and filter paper moisture were monitored every 4th day. Every 8th day, old paper disks were replaced with new ones. These new filter paper disks were treated with identical inhibitor concentrations. The removed filter paper disks 30, showing the results of termite feeding (FIG. 6), were dried and re-weighed. At the end of each assay, data were summarized as cumulative feeding per live termite and cumulative termite mortality. Data were analyzed by non-parametric t-tests (p<0.05) with commercially-available software for use in statistical analysis, designed by SAS Institute, Cary, N.C.
FIGS. 7A-7F provide graphic data on in vivo feeding bioassays conducted with the carbohydrate-based cellulase inhibitors to assess the impact on termite feeding and survivorship. Feeding results are expressed as the cumulative percent of untreated controls through 24 days. Mortality results are expressed as percent mortality after 24 days. […] Error bars represent standard error of the mean.

OC[C@@H]1[C@@H](O[C@@H]2O[C@H](CO)[C@@H](O)[C@H](O)[C@H]2O)[C@H](O)[C@@H](O)c2nccn21 [CBI, cellobioimidazole]
Average Feeding in mg per Live Termite (std. err.) days 1-8 (0.1 mM test conc.): 0.44 (0.04) mg per Live Termite
Average Feeding in mg per Live Termite (std. err.) days 9-16 (0.1 mM test conc.): 0.42 (0.11) mg per Live Termite
Average Feeding in mg per Live Termite (std. err.) days 17-24 (0.1 mM test conc.): 0.45 (0.04) mg per Live Termite
Normalized Avg. Totals (0.1 mM test conc.): 1.98
Average Feeding in mg per Live Termite (std. err.) days 1-8 (0.5 mM test conc.): 0.45 (0.03) mg per Live Termite
Average Feeding in mg per Live Termite (std. err.) days 9-16 (0.5 mM test conc.): 0.51 (0.06) mg per Live Termite
Average Feeding in mg per Live Termite (std. err.) days 17-24 (0.5 mM test conc.): 0.33 (0.04) mg per Live Termite
Normalized Avg. Totals (0.5 mM test conc.): 1.02
Average Feeding in mg per Live Termite (std. err.) days 1-8 (1 mM test conc.): 0.49 (0.12) mg per Live Termite
Average Feeding in mg per Live Termite (std. err.) days 9-16 (1 mM test conc.): 0.53 (0.03) mg per Live Termite
Average Feeding in mg per Live Termite (std. err.) days 17-24 (1 mM test conc.): 0.35 (0.04) mg per Live Termite
Normalized Avg. Totals (1 mM test conc.): 1.05
Average Feeding in mg per Live Termite (std. err.) days 1-8 (5 mM test conc.): 0.66 (0.05) mg per Live Termite
Average Feeding in mg per Live Termite (std. err.) days 9-16 (5 mM test conc.): 0.55 (0.11) mg per Live Termite
Average Feeding in mg per Live Termite (std. err.) days 17-24 (5 mM test conc.): 0.40 (0.89) mg per Live Termite
Normalized Avg. Totals (5 mM test conc.): 1.34
Average Feeding in mg per Live Termite (std. err.) days 1-8 (10 mM test conc.): 0.38 (0.05) mg per Live Termite
Average Feeding in mg per Live Termite (std. err.) days 9-16 (10 mM test conc.): 0.43 (0.05) mg per Live Termite
Average Feeding in mg per Live Termite (std. err.) days 17-24 (10 mM test conc.): 0.33 (0.05) mg per Live Termite
Normalized Avg. Totals (10 mM test conc.): 1.03
Average Feeding in mg per Live Termite (std. err.) days 1-8 (25 mM test conc.): 0.23 (0.01) mg per Live Termite
Average Feeding in mg per Live Termite (std. err.) days 9-16 (25 mM test conc.): 0.47 (0.44) mg per Live Termite
Average Feeding in mg per Live Termite (std. err.) days 17-24 (25 mM test conc.): 0.39 (0.01) mg per Live Termite
Normalized Avg. Totals (25 mM test conc.): 0.95
Average Feeding in mg per Live Termite (std. err.) days 1-8 (50 mM test conc.): 0.17 (0.03) mg per Live Termite
Average Feeding in mg per Live Termite (std. err.) days 9-16 (50 mM test conc.): 0.41 (0.05) mg per Live Termite
Average Feeding in mg per Live Termite (std. err.) days 17-24 (50 mM test conc.): 0.38 (0.03) mg per Live Termite
Normalized Avg. Totals (50 mM test conc.): 0.85
highest mortality observed (0.05 and 0.2% concentrations, after 24 days, FIG. 10B): around 20%
Average Feeding in mg per Live Termite (std. err.) days 1-8 (75 mM test conc.): 0.16 (0.01) mg per Live Termite
Average Feeding in mg per Live Termite (std. err.) days 9-16 (75 mM test conc.): 0.24 (0.05) mg per Live Termite
Average Feeding in mg per Live Termite (std. err.) days 17-24 (75 mM test conc.): 0.27 (0.01) mg per Live Termite
Normalized Avg. Totals (75 mM test conc.): 0.59
mortality (1-5 mM (0.05-0.2% wt/wt), after 24 days): approximately 20%
Effect on feeding (cumulative percent of untreated controls through 24 days) (across tested concentrations 0.1-75 mM, FIGS. 7A-7C, 8A-8B): both inhibitory and stimulatory effects, depending on concentration; also recorded: either inhibitory or stimulatory to feeding, depending on concentration
cumulative termite mortality (comparison between inhibitors) (after 24 days, FIGS. 7D-7F, 10A-10B): substantially greater than the mortality caused by FMG
mortality, one replicate (one replicate of the 0.05% concentration, after 24 days): over 30%
